US8778966B2, “Quinolinone derivatives as PARP and tank inhibitors” (Janssen Pharmaceutica, NV, priority 2007, dated 2014)

Key:
[1] = system: HCT116 cells; assay: Antiproliferative activity, Alamar Blue assay, HCT116 cells; assay type: cell-based, human; settings: Homo sapiens, HCT-116, HCT116 cells, Alamar Blue; read-out: HCT116 antiproliferative activity pIC50 (converted)
Summary of the method: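 Readout is resazurin fluorescence (ex 540, em 590 nm) after a 4 h dye incubation at 37 °C, following 4-day compound treatment of HCT116 cells plated 24 h earlier. Results expressed as % viable cells versus untreated; pIC50 derived from probit-fitted IC50.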

[2] = system: PC3 cells; assay: EB1 Comet (microtubule disruption) assay; assay type: cell-based, human; settings: Homo sapiens, PC-3, 1 h, 1 hour treatment, read-out: EB1 pLAC (converted)
Summary of the method: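 Readout is loss of Eb1 plus-end foci, scored by immunofluorescence microscopy, in PC3 cells after 1 h compound treatment at 37 °C with 0.6% final DMSO. LAC is defined as the lowest concentration leaving at least 50% of cells without Eb1 foci.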

IC50 [1] [nM] | Compound | minimal effective concentration [2] [µM]
631 | CCc1cc2ccc(C(C)(C#N)Cc3cnc(OC)nc3Cl)cc2[nH]c1=O (centres unmarked) [Compound 356] | 0.1
398 | CCc1cc2ccc(C(C)(C#N)Cc3cnc(OC)nc3OC)cc2[nH]c1=O (centres unmarked) [Compound 357] | 0.316
1260 | CCc1cc2ccc(C(C)(C#N)Cc3nccc(OC)n3)cc2[nH]c1=O (centres unmarked) [Compound 360] | 1
631 | CCc1cc2ccc(C(C)(C#N)Cc3cc(OC)nc(C)n3)cc2[nH]c1=O (centres unmarked) [Compound 366] | < 0.0316
1580 | CCc1cc2ccc(C(C)(C#N)Cc3nc(C)cc(C)n3)cc2[nH]c1=O (centres unmarked) [Compound 368] | 1

The next lines start with the compound.

Compound | IC50 [1] [nM] | minimal effective concentration [2] [µM]
CCc1cc2ccc(C(C)(C#N)Cc3cccc(C)n3)cc2[nH]c1=O (centres unmarked) [Compound 343] | 794 | 3.16
CCc1cc2ccc(C(C)(C#N)Cc3cccc(Br)n3)cc2[nH]c1=O (centres unmarked) [Compound 344] | 316 | 0.316
CCc1cc2ccc(C(C)(C#N)Cc3ccc(OC)nc3)cc2[nH]c1=O (centres unmarked) [Compound 352] | 1260 | 1
CCc1cc2ccc(C(C)(C#N)Cc3nc(Cl)cc(N(C)C)n3)cc2[nH]c1=O (centres unmarked) [Compound 359] | 200 | 0.1
CCc1cc2ccc(C(C)(C#N)Cc3cc(OCCOC)nc(C)n3)cc2[nH]c1=O (centres unmarked) [Compound 363] | 5010 | 1
CCc1cc2ccc(C(C)(C#N)Cc3cc(N(C)C)nc(Cl)n3)cc2[nH]c1=O (centres unmarked) [Compound 364] | 1260 | 1
CCc1cc2ccc(C(C)(C#N)Cc3cc(OCCOC)nc(Cl)n3)cc2[nH]c1=O (centres unmarked) [Compound 367] | 2510 | 1
CCc1cc2ccc(C(C)(C#N)Cc3nccc(OCCOC)n3)cc2[nH]c1=O (centres unmarked) [Compound 369] | 3980 | 3.16
CCc1cc2ccc(C(C)(C#N)Cc3nc(Cl)cc(OCCOC)n3)cc2[nH]c1=O (centres unmarked) [Compound 370] | 1580 | 1
CCc1cc2ccc(C(C)(C#N)Cc3cc(Cl)nc(Cl)c3)cc2[nH]c1=O (centres unmarked) [Compound 372] | 398 | 1
CCc1cc2ccc(C(C)(C#N)CC3CCc4ccccc4O3)cc2[nH]c1=O (centres unmarked) [Compound 399] | 631 | 0.316
